In patent US20260243781A1, “METHOD” (Philip Morris Products S.A., priority 2023, published 2026):

Tests used:
NHBE cells [1] = assay: Modified GSH/GSSG-Glo assay in NHBE cells; assay type: cell-based, human
Procedure: • 1. A tissues sample is treated basolaterally in medium containing 25 μM ROS-GloTM H2O2 substrate for the desired exposure duration. • Treatment duration is not longer than 6 hours due to instability of the substrate. • 2. After treatment, 75 μL of the medium is collected for the ROS endpoint (see example 3), and the remaining cell or tissue sample transferred to new 24-well plate for the GSH/GSSG endpoint. ROS samples are stored at 4° C. for a maximum total of 6 hours taking into account the treatment duration, while GSH/GSSG samples must be processed immediately. This Specific Example Based on GSH/GSSG-GloTM Assay Kit Catalogue #[…] and Described in Technical Manual #TM344 from Promega • (A) Starting with the cell or tissue sample from point 2 of Example 1, the cell supernatant is removed. • (B) 100 μL of cold Passive lysis buffer is 1× diluted in water is added per well, to tissue/cell samples and shaken for 5 min at 300 rpm on ice. • (C) 100 μL of lysate is placed into 2 wells containing 50 μL each. • (D) In one well 1 μL of Luciferin-NT is added for quantification of total GSH. • (E) In the other well, 1 μL of Luciferin-NT and 0.5 μL of N-Ethylmaleimide (NEM) at 25 mM is added for quantification of oxidized GSSG. • (F) Both wells are incubated for 5 min shaking at 300 rpm at room temperature. • (G) 50 μL of Luciferin Generation Reagent is added per well, and both wells shaken for 1 min. • (H) Both wells are incubated for 29 min standing at room temperature. • (I) 100 μL of Luciferin detection reagent is added to both wells and they are shaken for 1 min. • (J) Both wells are incubated for 14 min. • (K) Both wells are transferred to an assay plate containing a calibration curve (suitably prepared as in the supplier's protocol). • (L) The luminescence of each well is measured with FLUOstar® Omega “GSHG assay” In this example oxidative stress was simulated by adding menadione sodium bisulfite to four samples. Four of the samples had 10 μM, 30 μM, 100 μM or 300 μM of menadione sodium bisulfite respectively added to the medium to simulate increasing levels of oxidative stress. The fifth sample was used as the vehicle control wherein on the medium and 0.3% water were added. The assays were performed in triplicate on NHBE cells. In the top row of FIG. 9, the same experiments of the invention as per Example 6 (shown top row of FIG. 8) were carried out. In addition, the ROS endpoint analysis method of the invention (as per Example 5 above) was carried out on the same samples at the 1 hour and 2 hour time points (shown in FIG. 9, bottom row). A star (*) indicates significance P<0.05 paired t-test. Two stars (**) indicates significance P<0.01 paired t-test. The cells used where an NHBE cell line exposed to water-soluble menadione sodium bisulfite.

NHBE cells [2] = assay: ROS-Glo H2O2 assay (non-lytic) in NHBE cells; assay type: cell-based, human
Procedure: • 1. A tissues sample is treated basolaterally in medium containing 25 μM ROS-GloTM H2O2 substrate for the desired exposure duration. • Treatment duration is not longer than 6 hours due to instability of the substrate. • 2. After treatment, 75 μL of the medium is collected for the ROS endpoint (see example 3), and the remaining cell or tissue sample transferred to new 24-well plate for the GSH/GSSG endpoint. ROS samples are stored at 4° C. for a maximum total of 6 hours taking into account the treatment duration, while GSH/GSSG samples must be processed immediately. This Specific Example is Based on Non-Lytic Variant of ROS-GloTM H2O2 Assay Kit Catalogue #[…] and Described in Technical Manual TM391 from Promega. • (a) 75 μL of sample medium collected in Example 1, step 2, and 75 μL of compound interference controls are added to an assay plate. • (b) 10 wells, 100 μL per well are added to the assay plate for standard curve calibration. • (c) 75 μL of freshly prepared ROS-Glo Detection SolutionTM is added to all samples and compound interference control wells. D-cysteine is added on top if not present in reagents, preferably 0.01 to 20 mM, preferably 0.1 to 10 mM. • (d) 100 μL of ROS-Glo Detection SolutionTM is added to standard curve wells. • (e) The assay plate is shaken for 1 minute at room temperature on a plate shaker set at 300 rpm. • (f) The plate is incubated for 20 minutes standing at room temperature. • (g) Luminescence is measured with FLUOstar® Omega using the pre-defined “ROS-GloTM H2O2 assay”. In this example oxidative stress was simulated by adding menadione sodium bisulfite to four samples. Four of the samples had 10 μM, 30 μM, 100 μM or 300 μM of menadione sodium bisulfite respectively added to the medium to simulate increasing levels of oxidative stress. The fifth sample was used as the vehicle control wherein on the medium and 0.3% water were added. The assays were performed in triplicate on NHBE cells. In the top row of FIG. 9, the same experiments of the invention as per Example 6 (shown top row of FIG. 8) were carried out. […]

NHBE cells [3] = assay: Cell viability / cytotoxicity (ATP levels) in NHBE cells; assay type: cell-based, human
3D bronchial cultures [4] = assay: Modified GSH/GSSG-Glo assay in 3D bronchial cultures; assay type: cell-based, human
Procedure: (§1) • 1. A tissues sample is treated basolaterally in medium containing 25 μM ROS-Glo™ H2O2 substrate for the desired exposure duration. • Treatment duration is not longer than 6 hours due to instability of the substrate. • 2. After treatment, 75 μL of the medium is collected for the ROS endpoint (see example 3), and the remaining cell or tissue sample transferred to new 24-well plate for the GSH/GSSG endpoint. ROS samples are stored at 4° C. for a maximum total of 6 hours taking into account the treatment duration, while GSH/GSSG samples must be processed immediately.
This Specific Example Based on GSH/GSSG-Glo™ Assay Kit Catalogue #V6611 and V6612 and Described in Technical Manual #TM344 from Promega • (A) Starting with the cell or tissue sample from point 2 of Example 1, the cell supernatant is removed. • (B) 100 μL of cold Passive lysis buffer is 1× diluted in water is added per well, to tissue/cell samples and shaken for 5 min at 300 rpm on ice. • (C) 100 μL of lysate is placed into 2 wells containing 50 μL each. • (D) In one well 1 μL of Luciferin-NT is added for quantification of total GSH. • (E) In the other well, 1 μL of Luciferin-NT and 0.5 μL of N-Ethylmaleimide (NEM) at 25 mM is added for quantification of oxidized GSSG. • (F) Both wells are incubated for 5 min shaking at 300 rpm at room temperature. • (G) 50 μL of Luciferin Generation Reagent is added per well, and both wells shaken for 1 min. • (H) Both wells are incubated for 29 min standing at room temperature. • (I) 100 μL of Luciferin detection reagent is added to both wells and they are shaken for 1 min. • (J) Both wells are incubated for 14 min. • (K) Both wells are transferred to an assay plate containing a calibration curve (suitably prepared as in the supplier's protocol). • (L) The luminescence of each well is measured with FLUOstar® Omega “GSHG assay”
(§2) A 3D bronchial culture can be provided by isolating bronchial cells or using commercially available primary cells, culturing them and seeding them on a 3D framework. Suitable cultures include MucilAir™. MucilAir™ is an in vitro cell model of the human airway eplithelium cultures at the air liquid interface and available from Epithelix (for example, here https://www.epithelix.com/products/mucilair).
(§3) FIG. 11 is a further schematic showing how GSH/GSSG and ROS assays (as detailed in Example 4 and Example 5 above) can be adapted to 3D bronchial cultures. In this experiment, three 3D cultures were used. […] The GSH/GSSG-Glo assays were performed on samples from the cell culture within the culture insert and the ROS-Glo assays were performed on the basolateral medium. This was performed in triplicate.

3D bronchial cultures [5] = assay: ROS-Glo H2O2 assay on basolateral medium of 3D bronchial cultures; assay type: cell-based, human
Procedure: as §1
(§4) This Specific Example is Based on Non-Lytic Variant of ROS-Glo™ H2O2 Assay Kit Catalogue #G8820 and G8821 and Described in Technical Manual TM391 from Promega. • (a) 75 μL of sample medium collected in Example 1, step 2, and 75 μL of compound interference controls are added to an assay plate. • (b) 10 wells, 100 μL per well are added to the assay plate for standard curve calibration. • (c) 75 μL of freshly prepared ROS-Glo Detection Solution™ is added to all samples and compound interference control wells.
as §2, §3

3D bronchial cultures [6] = assay: Cell viability in 3D bronchial cultures; assay type: cell-based, human; conditions: lipid-soluble menadione
A549 lung cell line [7] = assay: GSH/GSSG assay in A549 lung cell line; assay type: cell-based, human; conditions: A549, dose-dependent
Procedure: This Specific Example Based on GSH/GSSG-Glo™ Assay Kit Catalogue #V6611 and V6612 and Described in Technical Manual #TM344 from Promega • (A) Starting with the cell or tissue sample from point 2 of Example 1, the cell supernatant is removed. • (B) 100 μL of cold Passive lysis buffer is 1× diluted in water is added per well, to tissue/cell samples and shaken for 5 min at 300 rpm on ice. • (C) 100 μL of lysate is placed into 2 wells containing 50 μL each. • (D) In one well 1 μL of Luciferin-NT is added for quantification of total GSH. • (E) In the other well, 1 μL of Luciferin-NT and 0.5 μL of N-Ethylmaleimide (NEM) at 25 mM is added for quantification of oxidized GSSG. • (F) Both wells are incubated for 5 min shaking at 300 rpm at room temperature. • (G) 50 μL of Luciferin Generation Reagent is added per well, and both wells shaken for 1 min. • (H) Both wells are incubated for 29 min standing at room temperature. • (I) 100 μL of Luciferin detection reagent is added to both wells and they are shaken for 1 min. • (J) Both wells are incubated for 14 min. • (K) Both wells are transferred to an assay plate containing a calibration curve (suitably prepared as in the supplier's protocol). • (L) The luminescence of each well is measured with FLUOstar® Omega “GSHG assay” […]

A549 lung cell line [8] = assay: ROS-Glo H2O2 assay in A549 lung cell line; assay type: cell-based, human; conditions: A549, dose-dependent
Procedure: as §4
In this experiment, an A549 lung cell line was exposed to lipid-soluble menadione (Vitamin K3) to simulate oxidative stress.

A549 lung cell line [9] = assay: Cell viability in A549 lung cell line; assay type: cell-based, human; conditions: A549, two highest concentrations
HeLa = conditions: HeLa, 5,000 cells/well, menadione-treated; cited from earlier work
HepG2 = conditions: HepG2, 10,000 cells/well, menadione-treated; cited from earlier work
HepaRG ® = conditions: HepaRG, 50,000 cells/well, menadione-treated; cited from earlier work
A549 = conditions: A549, 5,000 cells/well, menadione-treated; cited from earlier work
Rat hepatocytes = conditions: Rat hepatocytes, 50,000 cells/well, menadione-treated; cited from earlier work
[10] = 3D bronchial cultures, lipid-soluble menadione, dose-dependent
[11] = 30 µM, 1 hour and 2 hour time points
[12] = higher dose (300 μM) versus lower dose, 3D bronchial culture
[13] = higher dose (300 μM), 3D bronchial culture
[14] = lower dose (100 μM), 3D bronchial culture

CC1=CC(=O)c2ccccc2C1=O [Menadione]
GSH/GSSG (NHBE cells [1]; 100 μM): decreased GSH/GSSG | GSH/GSSG (NHBE cells [1]; 300 μM (highest dose)): lowest GSH/GSSG | GSH/GSSG reduction (NHBE cells [1]; 300 μM (highest dose)): 6 fold | ROS (NHBE cells [2]; 100 μM): increased ROS | ROS (NHBE cells [2]; 300 μM (highest dose)): highest ROS | cell viability (NHBE cells [3]; 300 μM (highest dose)): decreased cell viability | oxidative stress and cytotoxicity (as determined by ATP levels) with longer exposure (NHBE cells [3]; 2 hour versus 1 hour time point): more oxidative stress and cytotoxicity | GSH (3D bronchial cultures [4]; [10]): dose-dependent decrease | GSH/GSSG (3D bronchial cultures [4]; [10]): dose-dependent decrease | GSSG (3D bronchial cultures [4]; [10]): increase | ROS (3D bronchial cultures [5]; [10]): increase | cell viability (3D bronchial cultures [6]): no effects on cell viability | GSH/GSSG (A549 lung cell line [7]): decrease in GSH/GSSG | ROS (A549 lung cell line [8]): increase in ROS | cell viability (A549 lung cell line [9]): effects on cell viability at the two highest concentrations | Ratio GSH/GSSG (HeLa): 2.2 | Ratio GSH/GSSG (HepG2): 2.2 | Ratio GSH/GSSG (HepaRG ®): 2.5 | Ratio GSH/GSSG (A549): 10.9 | Ratio GSH/GSSG (Rat hepatocytes): 1.1

CC1(S(=O)(=O)[O-])CC(=O)c2ccccc2C1=O.[Na+] (stereo not shown) [Menadione sodium bisulfite, menadione sodium bisulfite]
GSH/GSSG (NHBE cells [1]; [11]): no changes in GSH/GSSG | ROS (NHBE cells [2]; [11]): increased ROS | GSSG (3D bronchial cultures [4]; [12]): no further impact | GSH (3D bronchial cultures [4]; [13]): further decreased | GSH/GSSG (3D bronchial cultures [4]; [13]): further decreased | GSH/GSSG (3D bronchial cultures [4]; [14]): no effect on GSH/GSSG | ROS (3D bronchial cultures [5]; [12]): no further impact | ROS (3D bronchial cultures [5]; [14]): significantly increased ROS
